Assays:
[1] = system: Ca2+ influx in non-CF neutrophils; assay: Fluo-4 Ca2+ influx across the plasma membrane, non-CF neutrophils; type: cell-based, human
Description: (§1) Isolated neutrophils were incubated with peptide or vehicle control for 3 h. For the final hour of treatment, cells were loaded with Fluo-4 direct (Thermofisher) for 45 min at 37°C and 15 min at room temperature as described.
Fig. 3. ELD607 inhibits SOCE in non-CF and CF neutrophils. (A) and (B) Mean changes in fluo-4 fluorescence as a marker of cytoplasmic Ca^2+ levels in non-CF and CF neutrophils respectively before and after stimulation with 1 μM thapsigargin (Tg). Before stimulation, neutrophils were exposed to vehicle (0.1% DMSO in PBS), 10 μM ELD607 or scrambled peptide (control) for 3 h. N = 10 non-CF and 21 CF donors. Stats show ELD607 vs vehicle or scrambled peptide based on color. (C-F) Isolation of ER Ca^2+ release vs Ca^2+ influx across the plasma membrane in non-CF and CF Neutrophils. Neutrophils were stimulated with thapsigargin (1 μM) in the absence of extracellular Ca^2+ to allow the release of Ca^2+ stores to be measured. Extracellular Ca^2+ was then returned so that extracellular Ca^2+ influx could be measured. (C) Mean fold change in Fluo-4 fluorescence during ER store release in non-CF and CF neutrophils. […] (E) Mean fold change in fluo-4 fluorescence during Ca^2+ influx in non-CF and CF neutrophils. […]
SOCE has 2 phases: release of Ca^2+ from ER stores and Ca^2+ influx from the extracellular space via Ca^2+ channels such as Orai1. […] Once the stores had emptied, extracellular Ca^2+ was reintroduced and Ca^2+ influx was measured (Fig. 3C–F).
Fluo-4 Ca^2+ assays. […] For global Ca^2+ measurements, baseline fluorescent readings were made for 2 min (1 read every 30 s) using a Tecan Infinite M1000 plate reader (ex 494 em 516 nm, bandwidth 5 nm) before thapsigargin (Sigma-Aldrich) was added and the change in emission was recorded for 10 min (1 read every 30 s). […] Baseline fluo-4 fluorescence was read for 2 min before cell were stimulated with thapsigargin (Tocris). Reads continued for ~5 min before 1.2 mM Ca^2+ was added to the extracellular solution and SOCE was measured for ~10 mins. For analysis, all fluo-4 fluorescence reads are normalized to baseline.

[2] = system: SOCE/Orai1 in non-CF peripheral blood neutrophils; assay: Fluo-4 Ca2+ assay, global thapsigargin-stimulated Ca2+ response (SOCE), non-CF neutrophils; type: cell-based, human; conditions: 10 μM peptide, 3 h pre-treatment, 1 μM thapsigargin, N = 10 donors
Description: (§2) Neutrophils were immediately isolated by negative selection from deidentified blood samples using an EasySep human neutrophil isolation kit (Stem Cell Technologies) as described. Cytosolic Ca^2+ was measured using Fluo-4 as described. Protein lysate from isolated blood neutrophils was characterized by liquid chromatography with tandem mass spectrometry (LC-MS/MS) as described. Degranulation products in media were quantified by Luminex assay using a custom Bio-Plex human kit (BioRad) per the manufacturer’s protocol […]. Detailed methods for all experiments and measurements are provided in an online data supplement.
as §1
Fluo-4 Ca^2+ assays. Isolated neutrophils were incubated with peptide or vehicle control for 3 h. For the final hour of treatment, cells were loaded with Fluo-4 direct (Thermofisher) for 45 min at 37°C and 15 min at room temperature. For global Ca^2+ measurements, baseline fluorescent readings were made for 2 min (1 read every 30 s) using a Tecan Infinite M1000 plate reader (ex 494 em 516 nm, bandwidth 5 nm) before thapsigargin (Sigma-Aldrich) was added and the change in emission was recorded for 10 min (1 read every 30 s). To isolate phases of store operated Ca^2+ entry, cells underwent 3 rounds of centrifugation and resuspension in Ca^2+-free Ringer’s solution to remove extracellular Ca^2+. Baseline fluo-4 fluorescence was read for 2 min before cell were stimulated with thapsigargin (Tocris). Reads continued for ~5 min before 1.2 mM Ca^2+ was added to the extracellular solution and SOCE was measured for ~10 mins. For analysis, all fluo-4 fluorescence reads are normalized to baseline.

[3] = system: bacterial lung infections in mice; conditions: cited from earlier work
Excerpt: In ... || CF neutrophils with elevated SOCE undergo more degranulation, leading to greater release of proteases/pro-inflammatory mediators. Therefore, increased SOCE may be a driving force for declining CF lung function. However, there is much to do to fully understand this phenomenon, and our data identify an association, not a causality. […] To date, several blood biomarkers have been identified as predictors of CF lung disease. Most biomarkers ( ...

neutrophil elastase = conditions: cited from earlier work
non-CF neutrophils = assay: Neutrophil degranulation multiplex assay, non-CF neutrophils; type: cell-based, human; conditions: 3 h, 1 μM thapsigargin 30 min, vs vehicle, paired t-test
Description: as §2
Multiple neutrophil functions, including neutrophil degranulation, are Ca^2+ dependent. Neutrophil degranulation results in an increase in several proteases in the lung, including neutrophil elastase, a key driver of CF lung damage. Accordingly, we investigated the impact of ELD607 on neutrophil degranulation as a marker of Ca^2+-dependent neutrophilic function. We used a multiplex assay to quantify key granule proteins released into media after a 3 h pretreatment with 10 μM ELD607 or vehicle control followed by a 30 min stimulation with 1 μM thapsigargin. Levels of myeloperoxidase (MPO; primary granules), lactoferrin (specific granules) and matrix metalloproteinase-9 (MMP9; tertiary granules) release were similar between non-CF and CF neutrophils (Fig. 4A–C).
Fig. 4. ELD607 inhibits degranulation in non-CF and CF neutrophils. Neutrophil degranulation (A-C) was assayed by measuring the concentration of representative constituents of (A) primary granules, MPO (non-CF, n = 9; CF, n = 13); (B) secondary granules, lactoferrin (non-CF, n = 12; CF, n = 17) and (C) tertiary granules, MMP-9 (non-CF, n = 9; CF, n = 12). […]
Multiplex assay. […] Supernatant was collected and analyzed for a panel of neutrophil granule proteins (MPO, lactoferrin, MMP9) using a Bio-Plex human kit (BioRad) per the manufacturer’s protocol. Plates were then analyzed using a Bio-Plex MAGPIX System (BioRad).

[4] = murine models of bacterial lung infections, ref [21]

## VHDIVNMLIRG [ELD607, size-optimized SPLUNC1/α6 peptidomimetic]
[1]; non-CF neutrophils (Fig. 3)
  attenuation of Ca2+ influx: markedly attenuated Ca^2+ influx
[1]; non-CF, 3 h pre-treatment, 1 μM thapsigargin, extracellular Ca2+ (1.2 mM) returned, 2 donors in triplicate, vs CF p<0.0001
  IC50: 340 nM
[2]
  inhibition of SOCE (global Ca2+ response): significantly inhibited SOCE regardless of genotype
[3]; inhaled ELD607, ref [53]
  neutrophilia caused by bacterial infections: abolished neutrophilia
[3]; [4]
  neutrophilia and lung damage: reduced neutrophilia and lung damage
  survival: increased survival
[3]; wild-type mice, alveolar macrophages depleted, ref [21]
  beneficial effects after depletion of alveolar macrophages: abolished the beneficial effects of ELD607
Neutrophil elastase
  stability in neutrophil elastase: protease-resistant and stable in CF patient-derived neutrophil elastase
non-CF neutrophils; n = 9, 10 μM
  MMP9 release (tertiary granules): significantly reduced
  MPO release (primary granules): significantly reduced
non-CF neutrophils; n = 12, 10 μM
  lactoferrin release (specific/secondary granules): significantly reduced

Reference: paper PMC12998938, “Neutrophil store-operated Ca^2+ entry: A correctable biomarker of cystic fibrosis lung disease progression” (Journal of cystic fibrosis : official journal of the …, 2025)
